Test results as given in US20060270705A1, “Method for inhibiting lipid absorption and lipid absorption inhibitor” (Japan Tobacco Inc., priority 2005, published 2006).

Assays:
[1] = test system: lipid absorption in the small intestine; assay: Inhibitory effect on lipid absorption in the small intestine: plasma triglyceride after oral olive oil loading in hamsters; format: in vivo, normal syrian hamsters; conditions: control group = 100%; for TG Concentration (%): Test 1, olive oil 2 mL/kg 30 min later, plasma 4 hours after olive oil, male 13-week old hamsters; for TG Concentration (4 hours) / TG Concentration (%) (8 hours): Test 2, 30 mg/kg oral, male 12-week old hamsters; for TG Concentration (4 hours): plasma 4 hours after oil loading; for TG Concentration (%) (8 hours): plasma 8 hours after oil loading
Method: Test of Inhibitory Effect on Lipid Absorption in the Small Intestine by Various CETP Inhibitors in Hamsters
(§1) Three kinds of CETP inhibitors (compound A: 40 mg/kg, compound B: 3 mg/kg, compound C: 3 mg/kg) suspended in 0.5% aqueous methylcellulose were orally administered to normal syrian hamsters (male, 13-week old). Only 0.5% aqueous methylcellulose was administered to the control group. After 30 minutes, olive oil at a dose of 2 mL/kg was orally loaded. Blood was collected from ophthalmic venous plexus 4 hours after the administration of olive oil, and plasma triglyceride (TG) concentration and CETP inhibitory activity were measured. Plasma triglyceride (TG) concentration was measured by enzymatic method. For CETP activity, the amount of [^3H]CE transferred from donor lipoprotein ([^3H]CE-HDL3) to acceptor lipoprotein (hamster apoB-containing lipoprotein) was used as index.
(§2) Using a test system similar to Test 1, the effects of compound B (30 mg/kg) and compound C (30 mg/kg) in normal syrian hamsters (male, 12-week old) were examined. Blood collection was carried out at 4 and 8 hours after oil loading, and plasma triglyceride (TG) concentration and CETP inhibitory activity were measured.

[2] = test system: CETP; assay: CETP activity in hamster plasma after oral dosing: [3H]CE transfer from donor [3H]CE-HDL3 to hamster apoB-containing lipoprotein; format: in vivo, normal syrian hamsters; conditions: proportion relative to control group = 100%; for CETP Inhibitory Activity (%): Test 1, plasma 4 hours after olive oil; for CETP Inhibitory Activity (%) (8 hours): Test 2, 30 mg/kg oral, plasma 8 hours after oil loading
Method: Potassium bromide (KBr) was added to plasma (40 mL) of a healthy subject, adjusted to have a specific density d=1.125 g/mL, and subjected to fractional ultracentrifugation (288,000×g, 4° C., 18 to 20 hr), and a fraction showing a specific density of d>1.125 g/mL (HDL3 fraction) was harvested. The obtained fraction was dialyzed against PBS solution [10 mmol/L Na2HPO4; 10 mmol/L NaH2PO4; 0.15 mol/L NaCl; 1 mmol/L EDTA (pH 7.4)]. Then, tritium-labeled cholesterol (37 MBq) was dissolved in 95% ethanol, gradually added to the above-mentioned HDL3 fraction with stirring and incubated at 37° C. for 18 to 24 hr. [By this operation, tritium-labeled cholesterol was esterified by the action of lecithin cholesterol acyl transferase (LCAT) present on the HDL3 surface and taken up into HDL3 as tritium-labeled cholesteryl ester ([^3H]CE)]. After incubation, KBr was added, the specific density was adjusted to d=1.21 g/mL, and subjected to fractional ultracentrifugation (285,000×g, 4° C., 70 to 90 hr), and a fraction of specific density […] was harvested. The obtained fraction was dialyzed against the aforementioned PBS solution to give HDL3 incorporating [^3H]CE ([^3H]CE-HDL3, specific density: 1.125<d<1.21, specific activity: 22,000-33,000 dpm/μL) as a donor lipoprotein.
as §1, §2

[3] = 3 mg/kg oral in 0.5% methylcellulose

| SMILES | TG Concentration (%) ([1]; 40 mg/kg oral in 0.5% methylcellulose) | CETP Inhibitory Activity (%) ([2]; 40 mg/kg oral) | TG Concentration (%) [1, 3] [%] | TG Concentration (4 hours) [1] [%] | TG Concentration (%) (8 hours) [1] | CETP Inhibitory Activity (%) ([2]; 3 mg/kg oral) | CETP Inhibitory Activity (%) (8 hours) [2] |
| --- | --- | --- | --- | --- | --- | --- | --- |
| CCC(CC)CC1(C(=O)Nc2ccccc2SC(=O)C(C)C)CCCCC1 [Compound A, S-{2-([[1-(2-ethylbutyl)cyclohexyl]carbonyl]amino)phenyl}2-methylpropanethioate] | 87 | 83 | – | – | – | – | – |
| CCN(C[C@H]1CC[C@H](CC(=O)O)CC1)c1cc(C)c(C(F)(F)F)cc1CN(Cc1cc(C(F)(F)F)cc(C(F)(F)F)c1)c1nnn(C)n1.CS(=O)(=O)O [Compound B, trans-(4-{[N-(2-{[N′-[3,5-bis(trifluoromethyl)benzyl]-N′-(2-methyl-2H-tetrazol-5-yl)amino]methyl}-5-methyl-4-trifluoromethylphenyl)-N-ethylamino]methyl}cyclohexyl)acetic acid methanesulfonate] | – | – | 69 | 66 | 56 | 29 | 29 |
| CCOC(=O)N1c2ccc(C(F)(F)F)cc2[C@@H](N(Cc2cc(C(F)(F)F)cc(C(F)(F)F)c2)C(=O)OC)C[C@H]1CC [Compound C] | – | – | 69 | 85 | 71 | 20 | 37 |
